Experimental data reported in article PMC10199925, “Cyclodextrin carboxylate improves the stability and activity of nisin in a wider range of application conditions” (NPJ Science of Food, 2023).
Where no end group is shown, it is not given here. [ ]: non-standard residue; d: D form. Dhb = C/C=C(\N)C(=O)O; Dha = C=C(N)C(=O)O

Assays:
S. aureus (ATCC 6538) = assay: Antibacterial activity by optical density (OD600) of bacterial culture; type: cell-based
Procedure: The antimicrobial activities of the samples were determined using S. aureus (ATCC 6538) as a representative Gram-positive bacterium. The optical density (OD) was used to assess the antibacterial activity of the nisin and the nisin-SACD complexes[41],[42]. The bacteria were precultured on Luria-Bertani media at 37 °C for 24 h to obtain seed cultures. These seed cultures were then diluted to 10^6 CFU using Luria-Bertani media. […] A bacteria culture containing no sample was used as a blank control group. After incubating at 37 °C for 24 h, the growth of bacteria in the culture media was determined by recording the OD at 600 nm (OD600) using an UV-visible spectrophotometer (UV–1800PC, Mapada, China).

S. aureus [1] = assay: MIC by broth microdilution; type: cell-based; conditions: nisin 3.125-400 µg/mL, SACD 0.3125-40 mg/mL, 37 °C, 24 h, result in words
Procedure: (§1) After confirming the antibacterial activity of nisin-SACD complexes, the MIC of nisin-SACD complexes was further measured by the broth microdilution method as reported by Li et al.. […] The initial solutions were then serially diluted until the concentration of them reached 3.125 µg/mL, 0.3125 mg/mL, 0.3125 mg/mL, and 0.3125 mg/mL, respectively. 100 µL of the samples at different concentrations were then cultured with 100 µL S. aureus dilutions containing 10^6 CFU bacteria in 96-well plates. The plates were incubated at 37 °C for 24 h. […] S aureus treated with nisin-SACD and HSS-nisin-SACD at MIC were further stained using a live/dead bacterial double stain kit (LMAI Bio, China), and the number of the total bacteria and dead bacteria could be represented by the fluorescence intensity value directly. Note there is no statistical relationship between the fluorescence intensity of the total bacteria and the dead bacteria, since they are stained by two different fluorescent dyes.

S. aureus [2] = assay: Live/dead bacterial double stain fluorescence intensity; type: cell-based; conditions: complexes at their MIC levels, result in words
Procedure: as §1

[3] = Thermogravimetric analysis (TG/dTG); type: physicochemical; conditions: dry powder, N2 50 mL/min, 10 °C/min, 30 to 600 °C
Procedure: The thermal behavior of the nisin-SACD complexes was evaluated using a thermogravimetric (TG) analysis system (TGA2, Mettler–Toledo, Schwerzenbach, Switzerland) under N2 (50 mL/min) at a 10 °C/min heating rate over a temperature range from 30 to 600 °C.

S. aureus [4] = conditions: pure SACD at a relatively high dose; result in words; cited from earlier work
Excerpt: S. aureus is commonly used as model Gram-positive bacteria to predict the antibacterial effects of the bacteriostatic agent. Meanwhile, it is a significant cause of foodborne illness leading to gastroenteritis, diarrhea, and vomiting. Foods susceptible to S. aureus intoxication including meat, egg, and dairy products. It is known that nisin can deactivate bacteria by adsorbing to the cell membrane, disrupting the cell membrane, and promoting the loss of essential int ...

Nisin (I[Dhb]SI[Dha]LCTPGCKTGALMGCNMKTATCHCSIHV[Dha]K; thioether (positions not given here); not fully specified (residues 3, 8, 13, 23, 25, bridges); UniProt P13068 24-57, looked up) [natural bacteriocin, small peptide of 34 amino acid residues produced by Lactococcus lactis; purchased from Aladdin]
OD600 value of the bacterial suspension after treatment (S. aureus (ATCC 6538); 1 mg nisin or 50 mg nisin-SACD (containing 1 mg nisin) in 10 mL culture (10^6 CFU), LB media, 37 °C, 24 h, blank OD600 1.23, n = 3): 0.46
fold decrease of OD600 versus untreated culture (S. aureus (ATCC 6538); as for OD600, relative to blank 1.23): 2.7 fold
antibacterial effects at the setting concentration range (MIC test) (S. aureus [1]): no significant antibacterial effects
total and dead bacteria (fluorescence intensity) in comparison to the untreated group (S. aureus [2]): Certain degree of inhibition on bacteria proliferation
maximum decomposition peak temperature (dTG) [3]: 333 °C
weight loss at the end of heating (TG) [3]: < 7%

succinic acid-β-cyclodextrin [SACD]
antibacterial activity against S. aureus (S. aureus [4]): did show antibacterial activity
antibacterial effects at the setting concentration range (MIC test) (S. aureus [1]): no significant antibacterial effects
total and dead bacteria (fluorescence intensity) in comparison to the untreated group (S. aureus [2]): Certain degree of inhibition on bacteria proliferation
